Reference: patent publication US20030166601A1, “Novel colloid synthetic vectors for gene therapy” (priority 1999, published 2003)

Assays:
CD-1 mice = assay: Luciferase expression in organs after intravenous injection of pCILuc complexes; type: in vivo; details: for Luciferase RLU/20 ul lysate heart / Luciferase RLU/20 ul lysate kidney / Luciferase RLU/20 ul lysate liver / Luciferase RLU/20 ul lysate lung / Luciferase RLU/20 ul lysate spleen / Luciferase RLU/20 μl lysate heart / Luciferase RLU/20 μl lysate kidney / Luciferase RLU/20 μl lysate liver / Luciferase RLU/20 μl lysate lung / Luciferase RLU/20 μl lysate spleen: 40 μg pCILuc i.v., 5 h
Procedure: Substituted aminoethanols (cationic compounds) were prepared as described in Examples 1-34. Their gene delivery ability was studied in vivo by intravenous injection (Table 1 and 2) using a standard method. The preparations were administered via tail vein injection to mice and gene expression determined after 5 hours. Female CD-1 mice, 13-15 g, were purchased from Charles River Inc. Forty microgram of pCILuc complexed with GC lipids or GC lipid:Chol dispersion as indicated weight ratios. After 5 h, mice were sacrificed and organs were collected. Organs were homogenized in 0.5 ml of lysis buffer and 20 μl of supernatant was used for luciferase assay. Luciferase activity was represented as a mean of relative light unit (RLU) of four mice. The lipids were either used alone or combined with cholesterol and complexed with a luciferase reporter gene plasmid by a standard procedure at a range of weight and charge ratios. For the in vivo screen, 40 μg of pCILuc was complexed with the formulation and injected into the mice.
All compounds were evaluated for in vivo activity. Two critical factors were examined, formulation with or without cholesterol and the ratio of cationic lipid to DNA. Cholesterol was tested at 1:1 mole ratio of lipid:chol. The studies were performed with a dose of 40 μg of pCILuc complexed with cationic lipid or lipid: Chol (1:1 mole ratio) injected i.v. into CD-1 mice and then luciferase activity in different organs determined 5 h later. The first evaluation included all of 14 GC-lipids at weight ratios of 2 and 10 (GC lipid to DNA). It was performed by four separated experiments. Each time cationic liposome DOTAP:Chol was used as a standard control.
Measurements were repeated with lipids GC-030, GC-034 and GC-029 at wider weight ratios than the first experiment. Luciferase activity is represented as a mean of relative light unit (RLU) of four mice. WR means weight ratio of GC lipids to DNA. The transfection activity was represented by luciferase activity RLU/organ. […] The transfection activity increased with the increased weight ratio (GC lipids to DNA). Inclusion of cholesterol can change the biodistribution of gene expression in the different organs examined. […] However this function of cholesterol was not seen with GC-034.

cultured cells = assay: Transfection of cultured cells, luciferase activity; type: cell-based
Text: The gene delivery ability of substituted aminoethanols with long chain hydrocarbon (aliphatic) substitutients was studied by transfection of cultured cells and then in vivo by intravenous injection (Table 2 and 3). The substituted aminoethanols have two hydrophilic polar heads connected with one hydrophobic body, which was named bihead lipids. Bihead lipids are proposed to form a monolayer membrane.

CCCCCCCCCCCCC(O)CN(CCCN)CCCCCCCCCCCCCN(CCCN)CC(O)CCCCCCCCCCCC (stereo not drawn) [CGP47204A]
Luciferase RLU/20 ul lysate heart (CD-1 mice; CR 0.5): 38 RLU/20 ul lysate
Luciferase RLU/20 ul lysate kidney (CD-1 mice; CR 0.5): 39 RLU/20 ul lysate
Luciferase RLU/20 ul lysate liver (CD-1 mice; CR 0.5): 45 RLU/20 ul lysate
Luciferase RLU/20 ul lysate lung (CD-1 mice; CR 0.5): 44 RLU/20 ul lysate
Luciferase RLU/20 ul lysate spleen (CD-1 mice; CR 0.5): 80 RLU/20 ul lysate
Luciferase RLU/20 ul lysate heart (CD-1 mice; CR 1): 41 RLU/20 ul lysate
Luciferase RLU/20 ul lysate kidney (CD-1 mice; CR 1): 38 RLU/20 ul lysate
Luciferase RLU/20 ul lysate liver (CD-1 mice; CR 1): 53 RLU/20 ul lysate
Luciferase RLU/20 ul lysate lung (CD-1 mice; CR 1): 51 RLU/20 ul lysate
Luciferase RLU/20 ul lysate spleen (CD-1 mice; CR 1): 467 RLU/20 ul lysate
Luciferase RLU/20 ul lysate heart (CD-1 mice; CR 4): 129 RLU/20 ul lysate
Luciferase RLU/20 ul lysate kidney (CD-1 mice; CR 4): 386 RLU/20 ul lysate
Luciferase RLU/20 ul lysate liver (CD-1 mice; CR 4): 4,583 RLU/20 ul lysate
Luciferase RLU/20 ul lysate lung (CD-1 mice; CR 4): 5,009 RLU/20 ul lysate
Luciferase RLU/20 ul lysate spleen (CD-1 mice; CR 4): 5,594 RLU/20 ul lysate
Luciferase RLU/20 ul lysate heart (CD-1 mice; CR 10): 983 RLU/20 ul lysate
Luciferase RLU/20 ul lysate kidney (CD-1 mice; CR 10): 156 RLU/20 ul lysate
Luciferase RLU/20 ul lysate liver (CD-1 mice; CR 10): 3,270 RLU/20 ul lysate
Luciferase RLU/20 ul lysate lung (CD-1 mice; CR 10): 38,115 RLU/20 ul lysate
Luciferase RLU/20 ul lysate spleen (CD-1 mice; CR 10): 6,378 RLU/20 ul lysate
Luciferase RLU/20 ul lysate heart (CD-1 mice; CR 20): 96 RLU/20 ul lysate
Luciferase RLU/20 ul lysate kidney (CD-1 mice; CR 20): 113 RLU/20 ul lysate
Luciferase RLU/20 ul lysate liver (CD-1 mice; CR 20): 429 RLU/20 ul lysate
Luciferase RLU/20 ul lysate lung (CD-1 mice; CR 20): 3,258 RLU/20 ul lysate
Luciferase RLU/20 ul lysate spleen (CD-1 mice; CR 20): 779 RLU/20 ul lysate
expression in vivo by core complexes (CD-1 mice; mouse, in vivo): exhibit expression in vivo
Luciferase activity Ave. RLU × 10000/well FBS(+) (cultured cells; charge ratio (+/−) 0.5): 11 RLU × 10000/well
Luciferase activity Ave. RLU × 10000/well FBS(−) (cultured cells; charge ratio (+/−) 0.5): 33 RLU × 10000/well
Luciferase activity Ave. RLU × 10000/well FBS(+) (cultured cells; charge ratio (+/−) 1): 821 RLU × 10000/well
Luciferase activity Ave. RLU × 10000/well FBS(−) (cultured cells; charge ratio (+/−) 1): 737 RLU × 10000/well
Luciferase activity Ave. RLU × 10000/well FBS(+) (cultured cells; charge ratio (+/−) 2): 8,079 RLU × 10000/well
Luciferase activity Ave. RLU × 10000/well FBS(−) (cultured cells; charge ratio (+/−) 2): 8,386 RLU × 10000/well
Luciferase activity Ave. RLU × 10000/well FBS(+) (cultured cells; charge ratio (+/−) 4): 13,088 RLU × 10000/well
Luciferase activity Ave. RLU × 10000/well FBS(−) (cultured cells; charge ratio (+/−) 4): 15,009 RLU × 10000/well
Luciferase activity Ave. RLU × 10000/well FBS(+) (cultured cells; charge ratio (+/−) 6): 22,694 RLU × 10000/well
Luciferase activity Ave. RLU × 10000/well FBS(−) (cultured cells; charge ratio (+/−) 6): 20,091 RLU × 10000/well
Luciferase activity Ave. RLU × 10000/well FBS(+) (cultured cells; charge ratio (+/−) 8): 21,644 RLU × 10000/well
Luciferase activity Ave. RLU × 10000/well FBS(−) (cultured cells; charge ratio (+/−) 8): 17,740 RLU × 10000/well

CCCCCCCCCCCCCCC(O)CN(CCN)CCCCCCCCNCCCN (stereo not drawn) [CGP44207A]
Luciferase activity Ave. RLU × 10000/well FBS(+) (cultured cells; charge ratio (+/−) 0.5): 12 RLU × 10000/well
Luciferase activity Ave. RLU × 10000/well FBS(−) (cultured cells; charge ratio (+/−) 0.5): 12 RLU × 10000/well
Luciferase activity Ave. RLU × 10000/well FBS(+) (cultured cells; charge ratio (+/−) 1): 9 RLU × 10000/well
Luciferase activity Ave. RLU × 10000/well FBS(−) (cultured cells; charge ratio (+/−) 1): 11 RLU × 10000/well
Luciferase activity Ave. RLU × 10000/well FBS(+) (cultured cells; charge ratio (+/−) 2): 12 RLU × 10000/well
Luciferase activity Ave. RLU × 10000/well FBS(−) (cultured cells; charge ratio (+/−) 2): 15 RLU × 10000/well
Luciferase activity Ave. RLU × 10000/well FBS(+) (cultured cells; charge ratio (+/−) 4): 22 RLU × 10000/well
Luciferase activity Ave. RLU × 10000/well FBS(−) (cultured cells; charge ratio (+/−) 4): 28 RLU × 10000/well
Luciferase activity Ave. RLU × 10000/well FBS(+) (cultured cells; charge ratio (+/−) 6): 15 RLU × 10000/well
Luciferase activity Ave. RLU × 10000/well FBS(−) (cultured cells; charge ratio (+/−) 6): 22 RLU × 10000/well
Luciferase activity Ave. RLU × 10000/well FBS(+) (cultured cells; charge ratio (+/−) 8): 13 RLU × 10000/well
Luciferase activity Ave. RLU × 10000/well FBS(−) (cultured cells; charge ratio (+/−) 8): 17 RLU × 10000/well

CCCCCCCCCCCCCCCCCCN(CCCCCCCCCCCCCCCCCC)C(=O)[C@H](CSSC[C@H](NC(=O)[C@@H](N)CCCN)C(=O)N(CCCCCCCCCCCCCCCCCC)CCCCCCCCCCCCCCCCCC)NC(=O)[C@@H](N)CCCN.O=C(O)C(F)(F)F.O=C(O)C(F)(F)F.O=C(O)C(F)(F)F.O=C(O)C(F)(F)F [GC-025]
Luciferase RLU/20 μl lysate heart (CD-1 mice; WR 2): 33 RLU/20 μl lysate
Luciferase RLU/20 μl lysate kidney (CD-1 mice; WR 2): 25 RLU/20 μl lysate
Luciferase RLU/20 μl lysate liver (CD-1 mice; WR 2): 38 RLU/20 μl lysate
Luciferase RLU/20 μl lysate lung (CD-1 mice; WR 2): 40 RLU/20 μl lysate
Luciferase RLU/20 μl lysate heart (CD-1 mice; WR 10): 27 RLU/20 μl lysate
Luciferase RLU/20 μl lysate kidney (CD-1 mice; WR 10): 28 RLU/20 μl lysate
Luciferase RLU/20 μl lysate liver (CD-1 mice; WR 10): 27 RLU/20 μl lysate
Luciferase RLU/20 μl lysate lung (CD-1 mice; WR 10): 30 RLU/20 μl lysate
Luciferase RLU/20 μl lysate spleen (CD-1 mice; WR 10): 32 RLU/20 μl lysate
Luciferase RLU/20 μl lysate spleen (CD-1 mice; WR (lipid to DNA) 2): 46 RLU/20 μl lysate

CCCCCCCCCCCCCCCCCCN(CCCCCCCCCCCCCCCCCC)C(=O)CC[C@H](NC(=O)[C@H](CCCNCCCN)NCCCN)C(=O)O.O=C(O)C(F)(F)F.O=C(O)C(F)(F)F.O=C(O)C(F)(F)F.O=C(O)C(F)(F)F [GC-033]
Luciferase RLU/20 μl lysate heart (CD-1 mice; WR 2): 31 RLU/20 μl lysate
Luciferase RLU/20 μl lysate kidney (CD-1 mice; WR 2): 27 RLU/20 μl lysate
Luciferase RLU/20 μl lysate liver (CD-1 mice; WR 2): 29 RLU/20 μl lysate
Luciferase RLU/20 μl lysate lung (CD-1 mice; WR 2): 36 RLU/20 μl lysate
Luciferase RLU/20 μl lysate heart (CD-1 mice; WR 10): 40 RLU/20 μl lysate
Luciferase RLU/20 μl lysate kidney (CD-1 mice; WR 10): 41 RLU/20 μl lysate
Luciferase RLU/20 μl lysate liver (CD-1 mice; WR 10): 46 RLU/20 μl lysate
Luciferase RLU/20 μl lysate lung (CD-1 mice; WR 10): 42 RLU/20 μl lysate
Luciferase RLU/20 μl lysate spleen (CD-1 mice; WR 10): 50 RLU/20 μl lysate
Luciferase RLU/20 μl lysate spleen (CD-1 mice; WR (lipid to DNA) 2): 27 RLU/20 μl lysate

CCCCCCCCCCCCCCCCCC(CCCCCCCCCCCCCCCCC)NC(=O)CNC(=O)CNC(=O)[C@@H](N)CCCN.O=C(O)C(F)(F)F.O=C(O)C(F)(F)F [GC-039]
Luciferase RLU/20 μl lysate heart (CD-1 mice; WR 2): 50 RLU/20 μl lysate
Luciferase RLU/20 μl lysate kidney (CD-1 mice; WR 2): 45 RLU/20 μl lysate
Luciferase RLU/20 μl lysate liver (CD-1 mice; WR 2): 48 RLU/20 μl lysate
Luciferase RLU/20 μl lysate lung (CD-1 mice; WR 2): 52 RLU/20 μl lysate
Luciferase RLU/20 μl lysate heart (CD-1 mice; WR 10): 45 RLU/20 μl lysate
Luciferase RLU/20 μl lysate kidney (CD-1 mice; WR 10): 54 RLU/20 μl lysate
Luciferase RLU/20 μl lysate liver (CD-1 mice; WR 10): 212 RLU/20 μl lysate
Luciferase RLU/20 μl lysate lung (CD-1 mice; WR 10): 753 RLU/20 μl lysate
Luciferase RLU/20 μl lysate spleen (CD-1 mice; WR 10): 845 RLU/20 μl lysate
Luciferase RLU/20 μl lysate spleen (CD-1 mice; WR (lipid to DNA) 2): 288 RLU/20 μl lysate

CCCCCCCCCCCCCCCCCCN(CCCCCCCCCCCCCCCCCC)C(=O)C(CSSCC(NC(=O)C(CCCNCCCN)NCCCN)C(=O)N(CCCCCCCCCCCCCCCCCC)CCCCCCCCCCCCCCCCCC)NC(=O)C(CCCNCCCN)NCCCN.O=C(O)C(F)(F)F.O=C(O)C(F)(F)F.O=C(O)C(F)(F)F.O=C(O)C(F)(F)F.O=C(O)C(F)(F)F.O=C(O)C(F)(F)F.O=C(O)C(F)(F)F.O=C(O)C(F)(F)F (stereo not drawn) [GC-026]
Luciferase RLU/20 μl lysate heart (CD-1 mice; WR 2): 42 RLU/20 μl lysate
Luciferase RLU/20 μl lysate kidney (CD-1 mice; WR 2): 41 RLU/20 μl lysate
Luciferase RLU/20 μl lysate liver (CD-1 mice; WR 2): 39 RLU/20 μl lysate
Luciferase RLU/20 μl lysate lung (CD-1 mice; WR 2): 40 RLU/20 μl lysate
Luciferase RLU/20 μl lysate heart (CD-1 mice; WR 10): 0 RLU/20 μl lysate
Luciferase RLU/20 μl lysate kidney (CD-1 mice; WR 10): 0 RLU/20 μl lysate
Luciferase RLU/20 μl lysate liver (CD-1 mice; WR 10): 0 RLU/20 μl lysate
Luciferase RLU/20 μl lysate lung (CD-1 mice; WR 10): 0 RLU/20 μl lysate
Luciferase RLU/20 μl lysate spleen (CD-1 mice; WR 10): 0 RLU/20 μl lysate
Luciferase RLU/20 μl lysate spleen (CD-1 mice; WR (lipid to DNA) 2): 40 RLU/20 μl lysate
